1 compound from patent US11584743B2, “Indole derivatives as estrogen receptor degraders” (Arvinas Operations, Inc., priority 2016, dated 2023) can be followed below.

The data set in a line: Single dose subcutaneous pharmacokinetics in CD-1 mice. The format is in vivo. The following applies: mouse, plasma, sc, 10 mg/kg single dose. As to the method: Single Dose Subcutaneous Pharmacokinetics in CD-1 Mice The subcutaneous bioavailability was determined in the following study: three CD-1 mice were dosed by subcutaneous injection (10 mg/kg) and plasma was collected at the following hourly time points (0.25, 0.5, 1, 2, 4, 8, and 24 h). Plasma compound concentations were determined by HPLC.

For orientation: bioavailability means the share of a dose that reaches the circulation, judged against a reference dose that is usually intravenous. The term AUC(0-inf) denotes the area under the concentration-time curve extrapolated to infinity. Read a high AUC(0-inf) as high exposure. What is called Cmax is the peak of the concentration-time curve. By Tmax is commonly meant the time from dosing to the highest level. As usually defined, the half-life is the time needed for the level to fall by half in the phase considered. As for `Cc1ncsc1-c1ccc([C@H](C)NC(=O)[C@@H]2C[C@@H](O)CN2C(=O)[C@@H](NC(=O)COCCOCCOCCOc2ccc(Cn3c(-c4ccc(O)cc4)c(C)c4cc(O)ccc43)cc2)C(C)(C)C)cc1` [Example #5, (2S,4R)-4-hydroxy-1-[(2S)-2-[1-(4-[[5-hydroxy-2-(4-hydroxyphenyl)-3-methyl-1H-indol-1-yl]methyl]phenyl)-1,4,7,10-tetraoxadodecan-12-amido]-3,3-dimethylbutanoyl]-N-[(1S)-1-[4-(4-methyl-1,3-thiazol-5-yl)phenyl]ethyl]pyrrolidine-2-carboxamide], the AUC(0-inf) is 8280 ng·h/mL, the concentration peaked (Cmax) at 687 ng/mL, the Tmax is 4 h and the half-life was 12 h. Also, for the setting “read-out: F % (subcutaneous bioavailability)”, the bioavailability came to 100%.
